Patent US20040023884A1, “Biologically active peptides from functional domains of bactericidal/permeability-increasing protein and uses thereof” (priority 1993, published 2004)
pKd: −log10 of the molar value. Ends that are not written are not given here.

Assays:
Candida albicans = assay type: cell-based
Salmonella typhurium = experiment: Radial diffusion bactericidal assay, Salmonella typhurium; assay type: cell-based; conditions: FIG. 11h
E. coli O86a:K61 = experiment: Broth bactericidal assay, E. coli O86a:K61; assay type: cell-based; conditions: FIG. 11j
E. coli O4:K12 = experiment: Broth bactericidal assay, E. coli O4:K12; assay type: cell-based; conditions: FIG. 11k
E. coli 86a:K61 = experiment: Bactericidal assay performed in human serum, E. coli O86a:K61; assay type: cell-based; conditions: FIG. 11l
Description: FIG. 11l is a graph showing the results of BPI functional domain peptide BPI.30 in bactericidal assays performed in human serum;

[1] = LPS binding by tryptophan fluorescence quenching
Description: (§1) The naturally-occurring amino acid tryptophan can emit light (i.e., it fluoresces) having a wavelength between 300 and 400 nm after excitation with light having a wavelength of between about 280 nm and 290 nm, preferably 285 nm. The amount of emitted light produced by such fluorescence is known to be affected by the local environment, including pH and buffer conditions, as well as binding interactions between proteins and other molecules. Some BPI functional domain peptides derived from domains II and III contain tryptophan residues, and tryptophan fluorescence was used to assay binding interactions between the BPI functional domain peptides of the invention and LPS or heparin.
(§2) Tryptophan fluorescence of the BPI functional domain peptides of the invention was determined in the presence or absence of LPS or heparin using a SPEX Fluorolog fluorimeter. Samples were excited with 285 nm light using a 0.25 nm slitwidth. Emission wavelengths were scanned between 300-400 nm using a 1.25 nm slitwidth. Data were accumulated as the average of three determinations performed over an approximately 5 min time span. Samples were maintained at 25° C. or 37° C. during the course of the experiments using a circulating water bath. Crab endotoxin binding protein (CEBP), a protein wherein the intrinsic fluorescence of tryptophan residues is affected by binding to LPS, was used as a positive control. (See Wainwright et al., 1990, Cellular and Molecular Aspects of Endotoxin Reactions, Nowotny et al., eds., Elsevier Science Publishing B.V., The Netherlands, pp. 315-325).
(§3) Kd values were determined by Scatchard-type Stern-Volmer plots of the quenching data as the negative inverse of the slope of such plots. Comparing the data for BPI.10, BPI.46 and BPI.47, it is seen that as the Kd decreased (indicating an increase in avidity for LPS), the percent fluorescence quenching increased. The differences between these peptides include replacement of basic and polar amino acid residues with non-polar residues in […] as compared with BPI.10. In contrast, as the Kd of heparin binding decreased, a corresponding increase in the percentage of fluorescence quenching was not detected.

[2] = Heparin binding by tryptophan fluorescence quenching
Description: as §1, §2, §3

[3] = tested on: multi-resistant strain E. coli 19536; experiment: Radial diffusion bactericidal assay, multi-antibiotic resistant E. coli 19536; assay type: cell-based
Procedure: These studies were conducted substantially following the procedures used in Example 2.
In order to test the bactericidal activity of BPI peptides against multi-antibiotic resistant E. coli, a multi-resistant strain E. coli 19536 (ampR 16 μg/mL; ceftazidimeR>16 μg/mL; ceftriazoneR>16 μg/mL) was tested. This strain is a clinical isolate obtained from the Baxter Microscan® library (Sacramento, Calif.). An overnight culture of E. coli 19536 was tested as described in Example 2 and part A above. Test BPI peptides were 2-fold serially diluted in D-PBS starting at about 1 mg/mL.

KSKVGWLIQLFHKK-NH2 (C-terminus assumed) [BPI.13]
MIC C. alb (Candida albicans): 6.25 µg/mL

KWKAQKRFLKKSKVGWLIQLFHKK-NH2 (C-terminus assumed) [BPI.30]
bactericidal activity (in words) (Salmonella typhurium): showed bactericidal activity | bactericidal activity (in words) (E. coli O86a:K61): showed bactericidal activity | bactericidal activity (in words) (E. coli O4:K12): showed bactericidal activity | bactericidal activity (in words) (E. coli 86a:K61): showed bactericidal activity

KWKAAARFLKKWKAAARFLK [BPI.48]
Quenching LPS [1]: 62% | pKd ([1]; Stern-Volmer plots): 7.08 | Quenching Heparin [2]: 41% | pKd ([2]; Stern-Volmer plots): 6.10 | bactericidal activity (in words) [3]: activity against multi-antibiotic resistant E. coli
